Six cell lines from the supplement of paper PMC10307832 can be followed below.

Holding throughout (assay): relative viability (nuclei count vs DMSO), 5 days (fraction); higher = more cells survive
Compound in assay [1]: O=C(C[C@H]1NCCC[C@@H]1O)Cn1cnc2cc(Br)c(Cl)cc2c1=O (racemic) [Halofuginone]
Summed up: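 A plate was accepted only when its control CV was below 25% and the cells had doubled at least once. Viability is defined from nuclear counts as treated wells divided by vehicle wells, with the median taken across plates. That median covers lung cancer cell lines grown in 1536-well plates, dosed by pinning at five √10-spaced library-drug concentrations, and counted in MetaXpress from 4× Hoechst images after 5 days.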

Compound in assay [2]: COc1cc2c(Oc3ccc4[nH]c(C)cc4c3F)ncnc2cc1OCCCN1CCCC1 [Cediranib] + Cc1nc(Nc2ncc(C(=O)Nc3c(C)cccc3Cl)s2)cc(N2CCN(CCO)CC2)n1 [Dasatinib] (partner 0.075 µM)
The procedure, abridged: (§1)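 Dosing by pin tool came one day after lung cancer cell lines were seeded in 1536-well plates, using either one drug or a fixed anchor-drug dose plus five library-drug doses (not always all listed) in √10 steps. After 5 days, nuclei were counted on 4× images. Relative viability is treated-well nuclei count divided by vehicle-well nuclei count, and values are medians of duplicate plates.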

Compound in assay [3]: Nc1ncn([C@H]2C[C@H](O)[C@@H](CO)O2)c(=O)n1 [Decitabine] + CC(=O)c1c(C)c2cnc(Nc3ccc(N4CCNCC4)cn3)nc2n(C2CCCC2)c1=O [Palbociclib] (partner 0.5 µM)
The procedure, abridged:
as §1

Compound in assay [4]: Nc1ncn([C@H]2C[C@H](O)[C@@H](CO)O2)c(=O)n1 [Decitabine] + CS(=O)(=O)N1CCN(Cc2cc3nc(-c4cccc5[nH]ncc45)nc(N4CCOCC4)c3s2)CC1 [Pictilisib] (partner 1 µM)
Summed up: as §1

On to NCI-H650, for which the relative viability came out at 1.04 in assay [1] (0.001 µM); 1.01 in assay [1] (0.003162 µM); 0.956 in assay [1] (0.01 µM); 0.881 in assay [1] (0.03162 µM); 0.719 in assay [1] (0.1 µM); 0.434 in assay [2] (first compound 0.04 µM). Besides, the relative viability in assay [2] (first compound 0.1265 µM) was found to be 0.458; in assay [2] (first compound 0.4 µM), 0.434; in assay [2] (first compound 1.265 µM), 0.453; in assay [2] (first compound 4 µM), 0.482; in assay [3] (first compound 0.04 µM), 0.268; in assay [3] (first compound 0.1265 µM) it was 0.243. For the same cell line, the relative viability worked out at 0.198 in assay [3] (first compound 0.4 µM); 0.191 in assay [3] (first compound 1.265 µM); 0.182 in assay [3] (first compound 4 µM); 0.81 in assay [4] (first compound 0.04 µM); 0.779 in assay [4] (first compound 0.1265 µM); 0.574 in assay [4] (first compound 0.4 µM). Also, the figures for the relative viability in assay [4] (first compound 1.265 µM) and in assay [4] (first compound 4 µM) were 0.443 and 0.33, respectively.

For BEN, the relative viability is 0.993 in assay [1] (0.001 µM); 1.05 in assay [1] (0.003162 µM); 1.05 in assay [1] (0.01 µM); 1.03 in assay [1] (0.03162 µM); 0.65 in assay [1] (0.1 µM); 0.331 in assay [2] (first compound 0.04 µM). Further, the relative viability is 0.362 in assay [2] (first compound 0.4 µM); 0.229 in assay [2] (first compound 1.265 µM); 0.332 in assay [2] (first compound 4 µM); 0.497 in assay [3] (first compound 0.04 µM); 0.443 in assay [3] (first compound 0.1265 µM); 0.455 in assay [3] (first compound 0.4 µM). The relative viability in assay [3] (first compound 1.265 µM) was found to be 0.435; in assay [3] (first compound 4 µM), 0.42; in assay [4] (first compound 0.04 µM), 0.545; in assay [4] (first compound 0.1265 µM) it was 0.543; in assay [4] (first compound 0.4 µM), 0.396; in assay [4] (first compound 1.265 µM) it was 0.349. Also, the relative viability in assay [4] (first compound 4 µM) came out at 0.324.

As for ChaGo-K-1, the relative viability is 0.995 in assay [1] (0.001 µM); 0.968 in assay [1] (0.003162 µM); 0.916 in assay [1] (0.01 µM); 0.967 in assay [1] (0.03162 µM); 1.03 in assay [1] (0.1 µM); 0.524 in assay [2] (first compound 0.04 µM). Moreover, the relative viability was 0.508 in assay [2] (first compound 0.1265 µM); 0.608 in assay [2] (first compound 0.4 µM); 0.578 in assay [2] (first compound 1.265 µM); 0.626 in assay [2] (first compound 4 µM); 0.764 in assay [3] (first compound 0.04 µM); 0.545 in assay [3] (first compound 0.1265 µM). The relative viability was 0.442 in assay [3] (first compound 0.4 µM); 0.362 in assay [3] (first compound 1.265 µM); 0.637 in assay [3] (first compound 4 µM); 0.552 in assay [4] (first compound 0.04 µM); 0.705 in assay [4] (first compound 0.1265 µM); 0.446 in assay [4] (first compound 0.4 µM). Also, the relative viability in assay [4] (first compound 1.265 µM) stood at 0.509; in assay [4] (first compound 4 µM), 0.492.

As for NCI-H23, the relative viability in assay [1] (0.001 µM) was 0.979; in assay [1] (0.003162 µM), 0.937; in assay [1] (0.01 µM), 0.868; in assay [1] (0.03162 µM) it was 0.874; in assay [1] (0.1 µM) it was 0.671; in assay [2] (first compound 0.04 µM) it was 0.729. Moreover, the relative viability amounted to 0.7 in assay [2] (first compound 0.4 µM); 0.375 in assay [2] (first compound 1.265 µM); 1.07 in assay [2] (first compound 4 µM); 0.413 in assay [3] (first compound 0.04 µM); 0.372 in assay [3] (first compound 0.1265 µM); 0.295 in assay [3] (first compound 0.4 µM). Also, the relative viability in assay [3] (first compound 1.265 µM) came out at 0.28; in assay [3] (first compound 4 µM) it was 0.271; in assay [4] (first compound 0.04 µM) it was 0.528; in assay [4] (first compound 0.1265 µM) it was 0.59; in assay [4] (first compound 0.4 µM), 0.281; in assay [4] (first compound 1.265 µM), 0.266. For the same cell line, in assay [4] (first compound 4 µM), the relative viability turned out to be 0.196.

For the cell line NCI-H1975, the relative viability in assay [1] (0.001 µM) was determined as 1.05; in assay [1] (0.003162 µM) it was 0.943; in assay [1] (0.01 µM) it was 0.953; in assay [1] (0.03162 µM) it was 0.692; in assay [1] (0.1 µM) it was 0.442; in assay [2] (first compound 0.04 µM), 0.361. Besides, the relative viability in assay [2] (first compound 0.1265 µM) came out at 0.35; in assay [2] (first compound 0.4 µM), 0.337; in assay [2] (first compound 1.265 µM) it was 0.356; in assay [2] (first compound 4 µM) it was 0.352; in assay [3] (first compound 0.04 µM) it was 0.395; in assay [3] (first compound 0.1265 µM) it was 0.46. Moreover, the relative viability in assay [3] (first compound 0.4 µM) was determined as 0.285; in assay [3] (first compound 1.265 µM), 0.231; in assay [3] (first compound 4 µM), 0.301; in assay [4] (first compound 0.04 µM), 0.293; in assay [4] (first compound 0.1265 µM) it was 0.254; in assay [4] (first compound 0.4 µM), 0.226. The relative viability is 0.238 in assay [4] (first compound 1.265 µM) and 0.218 in assay [4] (first compound 4 µM).

For COR-L 105, the relative viability in assay [1] (0.001 µM) stood at 1.07; in assay [1] (0.003162 µM), 0.955; in assay [1] (0.01 µM), 0.874; in assay [1] (0.03162 µM), 0.824; in assay [1] (0.1 µM), 0.711; in assay [2] (first compound 0.04 µM), 0.346. The relative viability came to 0.375 in assay [2] (first compound 0.1265 µM); 0.388 in assay [2] (first compound 0.4 µM); 0.352 in assay [2] (first compound 1.265 µM); 0.368 in assay [2] (first compound 4 µM); 0.45 in assay [3] (first compound 0.04 µM); 0.474 in assay [3] (first compound 0.1265 µM). Further, the relative viability was 0.397 in assay [3] (first compound 0.4 µM); 0.408 in assay [3] (first compound 1.265 µM); 0.387 in assay [3] (first compound 4 µM); 0.327 in assay [4] (first compound 0.04 µM); 0.442 in assay [4] (first compound 0.1265 µM); 0.405 in assay [4] (first compound 0.4 µM). In addition, the figures for the relative viability in assay [4] (first compound 1.265 µM) and in assay [4] (first compound 4 µM) were 0.341 and 0.292, respectively.
